Results published in ChEMBL document CHEMBL1201862, “PubChem BioAssay data set” (2004).
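Exposure lasted 48 hours, with cells grown in 96-well plates and compounds tested at five concentrations. Here, GI50 denotes the concentration required for 50% inhibition of growth.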 Calls of active or inactive are those of the source. Rule as the data show it: active = GI50 up to about 1.1 µM and inactive = higher.

Tests used:
Experiment in all cases: inhibition of tumour cell growth, NCI panel, 48 h
NCI-H460 = tested on: NCI-H460
BT-549 = tested on: BT-549
HCT-15 = tested on: HCT-15
Malme-3M = tested on: Malme-3M
SF-295 = tested on: SF-295
UACC-62 = tested on: UACC-62
SK-OV-3 = tested on: SK-OV-3
SK-MEL-5 = tested on: SK-MEL-5
DU-145 = tested on: DU-145
SN12C = tested on: SN12C
ACHN = tested on: ACHN
U-251 = tested on: U-251
M14 = tested on: M14
NCI-H522 = tested on: NCI-H522
SF-268 = tested on: SF-268
SK-MEL-2 = tested on: SK-MEL-2
KM12 = tested on: KM12
UACC-257 = tested on: UACC-257
HCC 2998 = tested on: HCC 2998

SMILES	GI50 (NCI-H460)	GI50 (BT-549)	GI50 (HCT-15)	GI50 (Malme-3M)	GI50 (SF-295)	GI50 (UACC-62)	GI50 (SK-OV-3)	GI50 (SK-MEL-5)	GI50 (DU-145)	GI50 (SN12C)	GI50 (ACHN)	GI50 (U-251)	GI50 (M14)	GI50 (NCI-H522)	GI50 (SF-268)	GI50 (SK-MEL-2)	GI50 (KM12)	GI50 (UACC-257)	GI50 (HCC 2998)
O=[As](O)(O)c1ccc(/N=N/c2ccc(O)cc2)cc1	> 100 µM (inactive)	> 100 µM (inactive)	> 100 µM	> 100 µM (inactive)	> 100 µM (inactive)	> 100 µM (inactive)	> 100 µM (inactive)	> 100 µM (inactive)	> 100 µM (inactive)	> 100 µM (inactive)	> 100 µM (inactive)	> 100 µM (inactive)	> 100 µM (inactive)	> 100 µM (inactive)	> 100 µM (inactive)	> 100 µM (inactive)	> 100 µM (inactive)	–	–
CN(CC(=O)O)c1ncc2c(n1)CCCC2	> 100 µM (inactive)	–	> 100 µM	> 100 µM (inactive)	> 100 µM (inactive)	> 100 µM (inactive)	> 100 µM (inactive)	> 100 µM (inactive)	> 100 µM (inactive)	> 100 µM (inactive)	> 100 µM (inactive)	> 100 µM (inactive)	> 100 µM (inactive)	> 100 µM (inactive)	> 100 µM (inactive)	> 100 µM (inactive)	> 100 µM (inactive)	> 100 µM (inactive)	–
COc1ccc(-c2coc3cc(O)ccc3c2=O)cc1 [FORMONONETIN]	> 100 µM (inactive)	–	> 100 µM	> 100 µM (inactive)	> 100 µM (inactive)	> 100 µM (inactive)	> 100 µM (inactive)	> 100 µM (inactive)	> 100 µM (inactive)	> 100 µM (inactive)	> 100 µM (inactive)	> 100 µM (inactive)	> 100 µM (inactive)	> 100 µM (inactive)	> 100 µM (inactive)	> 100 µM (inactive)	> 100 µM (inactive)	> 100 µM (inactive)	> 100 µM (inactive)
C=C(C)[C@]12CC(C)C34OC(/C=C\C=C\CCCCCCCCC)(O[C@@H]1[C@@H]3[C@@H]1O[C@]1(CO)[C@@H](O)[C@]1(O)C(=O)C(C)=C[C@@H]41)O2 (some centres undefined)	0.01 µM (active)	–	12.4 µM	0.535 µM (active)	0.01 µM (active)	10 µM (inactive)	20.3 µM (inactive)	11.7 µM (inactive)	8.38 µM (inactive)	2.42 µM (inactive)	5.61 µM (inactive)	15.5 µM (inactive)	13.1 µM (inactive)	14.7 µM (inactive)	12.8 µM (inactive)	–	6.97 µM (inactive)	14.7 µM (inactive)	0.01 µM (active)
